Results reported in patent publication US5962636A, “Peptides capable of modulating inflammatory heart disease” (priority 1998, dated 1999).

System: Balb/c mice
Assay: Oligodeoxynucleotides as adjuvants: immunization with M7A-alpha peptide plus oligo; presence and severity of inflammatory heart disease
Format: in vivo
Conditions: for Prevalence / Severity: day 21; for immunostimulatory / adjuvant activity: result in words, with M7A-alpha peptide, in the absence of Freund's complete adjuvant; for Severity: score ± SD, scale as in Example 1, adjuvant given with M7A-alpha peptide
[1] = adjuvant given with about 50 micrograms M7A-alpha peptide, days 0 and 7, oligos about 10 nmol with Freund's incomplete adjuvant

Row | Sequence | Prevalence (about 10 nmol oligo without peptide (Peptide: None)) | Prevalence [1] | immunostimulatory / adjuvant activity | Severity
1 | GTACTGACGTTTACTCTTGG (chemistry not given here) [CpG, oligonucleotide with CpG motif derived from DNA encoding a 60 kDa cysteine rich outer membrane protein from Chlamydia trachomatis] | 0/5 | 5/5 | potent immunostimulator | 1.2 ± 0.4
2 | GTACTGAGCTTTACTCTTGG (chemistry not given here) [non-CpG, counterpart of the CpG oligo not containing the CpG motif, reference compound] |  | 1/5 | hardly effective as an adjuvant | 1.0 ± 0.0
